The values below come from US11242351B2, “Tricyclic inhibitors of the BCL6 BTB domain protein-protein interaction and uses thereof” (priority 2017, dated 2022).

For assay [1], the system named is BCL6 reporter construct in SuDHL4-3×BCL6-TK-Luc cells. The assay can be described thus: Cell-based luciferase assay (BCL6 reporter). The conditions noted are these: 48 h, read-out: Luc IC50. The essentials:
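SuDHL4 cells stably carrying a 3×BCL6-site TK-promoter firefly luciferase reporter, 15,000 cells/well, dosed over 10 concentrations (top 10 μM) and cultured two days at 37° C, 5% CO2. Luciferase luminescence read after room-temperature equilibration with neolite reagent.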

Assay [2] deals with BCL6 BTB domain (biotin-thrombin-BCL6 amino acids 1-129) (Homo sapiens (Human), UniProt P41182). The assay can be described thus: Surface Plasmon Resonance (SPR) assay. It is filed as binding. The conditions noted are these: Biacore T200, single cycle kinetic analysis. The protocol: Surface Plasmon Resonance (SPR) Assay
SPR studies were performed using a Biacore™ T200 instrument (GE Health Sciences Inc.). […] The Biacore flow rate was set at 100 μl/min. […] Curve fitting and KD calculations were performed with the Biacore T200 Evaluation software (GE Health Sciences Inc).

Assay [3] relates to Karpas422 cells. The assay can be described thus: Tumor cell growth inhibition assay. The class given is cell-based. The conditions noted are these: Homo sapiens, KARPAS-422, 144 h, read-out: GI Karpas EC50. In outline: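 Karpas422 cells were dosed over a 10-point concentration range (top 5 μM) and grown 6 days at 37 °C, 5% CO2, in Alpha-MEM with 10% FBS. Viability was read as ATPlite luminescence.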

Setting [4] is: SuDHL4-3×BCL6-TK-Luc cells, two days.
[5] abbreviates: Karpas422 cells, six days, ATPlite.

Like-named read-outs stand apart in the source and are kept apart here.

For the molecule `CC1Cc2nc3c(c(-c4cc(F)c(O)c(C(N)=O)c4)cn3CC(=O)Nc3cc(N4CCN(C)C[C@@H]4C)nc(F)c3Cl)c(=O)n2C1` (stereo partly drawn) [I-78, 5-(1-(2-((3-chloro-6-((S)-2,4-dimethyl-piperazin-1-yl)-2-fluoropyridin-4-yl)amino)-2-oxoethyl)-7-methyl-4-oxo-4,6,7,8-tetrahydro-1H-dipyrrolo[1,2-a:2′,3′-d]pyrimidin-3-yl)-3-fluoro-2-hydroxy-benzamide], in assay [1] (setting [4]), the IC50 – broadly, the concentration that inhibits the measured activity by half – is 30.7 nM. For the same molecule, binding in assay [2] was put at a Kd of 2.03 nM. The EC50 (in general, the concentration needed to bring the measured effect to its halfway point) in assay [3] (setting [5]) is 21 nM.

With `C[C@H]1CN(C)CCN1c1cc(NC(=O)Cn2cc(-c3cc(F)c(O)c(C(N)=O)c3)c3c(=O)n4c(nc32)CC(C)(C)C4)c(Cl)c(F)n1` [I-79, (S)-5-(1-(2-((3-chloro-6-(2,4-dimethyl-piperazin-1-yl)-2-fluoropyridin-4-yl)amino)-2-oxoethyl)-7,7-dimethyl-4-oxo-4,6,7,8-tetrahydro-1H-dipyrrolo[1,2-a:2′,3′-d]pyrimidin-3-yl)-3-fluoro-2-hydroxy-benzamide], the IC50 in assay [1] (setting [4]) was found to be 35.2 nM. The affinity in assay [2], expressed as Kd, was 2.79 nM. Also, the EC50 in assay [3] (setting [5]) was found to be 39.8 nM.

On to `CN(C)c1cc(NC(=O)Cn2cc(-c3cc(F)c(O)c(C(N)=O)c3)c3c(=O)n4c(nc32)CCC4)c(Cl)c(F)n1` [I-80, 5-(1-(2-((3-chloro-6-(dimethylamino)-2-fluoropyridin-4-yl)amino)-2-oxoethyl)-4-oxo-4,6,7,8-tetrahydro-1H-dipyrrolo[1,2-a:2′,3′-d]pyrimidin-3-yl)-3-fluoro-2-hydroxy-benzamide], for which the IC50 in assay [1] (setting [4]) is 87.2 nM. Further, the Kd – broadly, the equilibrium constant for the complex coming apart – in assay [2] worked out at 3.83 nM. Further, the EC50 in assay [3] (setting [5]) was determined as 70.1 nM.

For `CCN1CCN(c2cc(NC(=O)Cn3cc(-c4cc(F)c(O)c(C(N)=O)c4)c4c(=O)n5c(nc43)CCC5)c(Cl)c(F)n2)[C@@H](C)C1` [I-81, (S)-5-(1-(2-((3-chloro-6-(4-ethyl-2-methyl-piperazin-1-yl)-2-fluoropyridin-4-yl)amino)-2-oxoethyl)-4-oxo-4,6,7,8-tetrahydro-1H-dipyrrolo[1,2-a:2′,3′-d]pyrimidin-3-yl)-3-fluoro-2-hydroxy-benzamide], in assay [1] (setting [4]), the IC50 was 28.3 nM. For the same molecule, the Kd in assay [2] was 1.55 nM. Besides, the EC50 in assay [3] (setting [5]) came out at 31.3 nM.

Take `CCN1CCN(c2cc(NC(=O)Cn3cc(-c4cc(Cl)c(O)c(C(N)=O)c4)c4c(=O)n5c(nc43)CCC5)c(Cl)c(F)n2)[C@@H](C)C1` [I-82, (S)-3-chloro-5-(1-(2-((3-chloro-6-(4-ethyl-2-methylpiperazin-1-yl)-2-fluoropyridin-4-yl)amino)-2-oxoethyl)-4-oxo-4,6,7,8-tetra-hydro-1H-dipyrrolo [1,2-a:2′,3′-d]pyrimi-din-3-yl)-2-hydroxy-benzamide]: the IC50 in assay [1] (setting [4]) was found to be 63.1 nM. In assay [2], the Kd was 4.13 nM. The EC50 in assay [3] (setting [5]) came to 27.8 nM.

Regarding `C[C@H]1CN(C)C[C@H](C)N1c1cc(NC(=O)Cn2cc(-c3cc(F)c(O)c(C(N)=O)c3)c3c(=O)n4c(nc32)CCC4)c(Cl)c(F)n1` [I-83, 5-(1-(2-((3-chloro-2-fluoro-6-((2S,6S)-2,4,6-trimethylpiperazin-1-yl)pyridin-4-yl)amino)-2-oxoethyl)-4-oxo-4,6,7,8-tetrahydro-1H-dipyrrolo[1,2-a:2′,3′-d]pyrimidin-3-yl)-3-fluoro-2-hydroxy-benzamide], the IC50 in assay [1] (setting [4]) turned out to be 465 nM. The same molecule showed a Kd in assay [2] of 11.2 nM. Moreover, the EC50 in assay [3] (setting [5]) amounted to 109 nM.

As to `C[C@H]1COCCN1c1cc(NC(=O)Cn2cc(-c3cc(C(N)=O)c(O)c4c3OCO4)c3c(=O)n4c(nc32)CCC4)c(Cl)cn1` [I-85, (S)-7-(1-(2-((5-chloro-2-(3-methylmorpholino)pyridin-4-yl)amino)-2-oxoethyl)-4-oxo-4,6,7,8-tetrahydro-1H-dipyrrolo[1,2-a:2′,3′-d]pyrimidin-3-yl)-4-hydroxybenzo[d][1,3] dioxole-5-carboxamide], in assay [1] (setting [4]), the IC50 was 15.4 nM. Besides, the Kd in assay [2] worked out at 1.61 nM. Further, the EC50 in assay [3] (setting [5]) is 29.6 nM.

For the molecule `CCN1CCN(c2cc(NC(=O)Cn3cc(-c4cc(C(N)=O)c(O)c5c4OCO5)c4c(=O)n5c(nc43)CCC5)c(Cl)c(F)n2)[C@@H](C)C1` [I-86, (S)-7-(1-(2-((3-chloro-6-(4-ethyl-2-methyl-piperazin-1-yl)-2-fluoropyridin-4-yl)amino)-2-oxoethyl)-4-oxo-4,6,7,8-tetrahydro-1H-dipyrrolo[1,2-a:2′,3′-d]pyrimidin-3-yl)-4-hydroxybenzo[d][1,3] dioxole-5-carboxamide], in assay [1], the IC50 came to 7.85 nM. Moreover, the Kd in assay [2] came to 0.81 nM. In assay [3], the EC50 was 6.88 nM.

With `CC1Cc2nc3c(c(-c4cc(C(N)=O)c(O)c5c4OCO5)cn3CC(=O)Nc3cc(N4CCN(C)C[C@@H]4C)nc(F)c3Cl)c(=O)n2C1` (stereo partly drawn) [I-87, 7-(1-(2-((3-chloro-6-((S)-2,4-dimethyl-piperazin-1-yl)-2-fluoropyridin-4-yl)amino)-2-oxoethyl)-7-methyl-4-oxo-4,6,7,8-tetrahydro-1H-dipyrrolo[1,2-a:2′,3′-d]pyrimidin-3-yl)-4-hydroxybenzo[d][1,3] dioxole-5-carboxamide], the IC50 in assay [1] (setting [4]) stood at 10.6 nM. Also, in assay [2], the affinity, expressed as Kd, was 0.77 nM. Also, the half-maximal effective concentration (EC50) in assay [3] (setting [5]) came out at 9.04 nM.

`CC1Cc2nc3c(c(-c4cc(C(N)=O)c(O)c5c4OCO5)cn3CC(=O)Nc3cc(N4CCOC[C@@H]4C)ncc3Cl)c(=O)n2C1` (stereo partly drawn) [I-88, 7-(1-(2-((5-chloro-2-((S)-3-methylmorpho-lino)pyridin-4-yl)amino)-2-oxoethyl)-7-methyl-4-oxo-4,6,7,8-tetrahydro-1H-dipyrrolo[1,2-a:2′,3′-d]pyrimidin-3-yl)-4-hydroxybenzo[d][1,3] dioxole-5-carboxamide]: the IC50 in assay [1] (setting [4]) was 39.4 nM. Also, in assay [2], the affinity, expressed as Kd, was 2.14 nM. Also, in assay [3] (setting [5]), the EC50 came to 17.6 nM.

As for `CCN1CCN(c2cc(NC(=O)Cn3cc(-c4cc(C(N)=O)c(O)c5c4OCO5)c4c(=O)n5c(nc43)CC(C)C5)c(Cl)c(F)n2)[C@@H](C)C1` (stereo partly drawn) [I-89, 7-(1-(2-((3-chloro-6-((S)-4-ethyl-2-methyl-piperazin-1-yl)-2-fluoropyridin-4-yl)amino)-2-oxoethyl)-7-methyl-4-oxo-4,6,7,8-tetrahydro-1H-dipyrrolo[1,2-a:2′,3′-d]pyrimidin-3-yl)-4-hydroxybenzo[d][1,3] dioxole-5-carboxamide], the IC50 in assay [1] (setting [4]) is 12.9 nM. The molecule also displayed a Kd in assay [2] of 1.36 nM. For the same molecule, the EC50 in assay [3] (setting [5]) was found to be 11.1 nM.

As for `C[C@H]1CNCCN1c1cc(NC(=O)Cn2cc(-c3cc(C(N)=O)c(O)c4c3OCO4)c3c(=O)n4c(nc32)CCC4)c(Cl)c(F)n1` [I-90, (S)-7-(1-(2-((3-chloro-2-fluoro-6-(2-methyl-piperazin-1-yl)pyridin-4-yl)amino)-2-oxo-ethyl)-4-oxo-4,6,7,8-tetrahydro-1H-dipyrrolo [1,2-a:2′,3′-d]pyrimidin-3-yl)-4-hydroxybenzo [d][1,3]dioxole-5-carboxamide], the IC50 in assay [1] (setting [4]) came out at 23.5 nM. In assay [2], binding was put at a Kd of 0.7 nM. Also, the EC50 in assay [3] (setting [5]) was determined as 22 nM.

`COc1c(-c2cn(CC(=O)Nc3cc(N4CCN(C)C[C@@H]4C)nc(F)c3Cl)c3nc4n(c(=O)c23)CCC4)cc(C(N)=O)c(O)c1F` [I-91, (S)-5-(1-(2-((3-chloro-6-(2,4-dimethylpipera-zin-1-yl)-2-fluoro-pyridin-4-yl)amino)-2-oxoethyl)-4-oxo-4,6,7,8-tetrahydro-1H-dipyrrolo [1,2-a:2′,3′-d]pyrimidin-3-yl)-3-fluoro-2-hydroxy-4-methoxy-benzamide]: the IC50 in assay [1] was found to be 1030 nM. For the same molecule, the Kd in assay [2] was determined as 94.7 nM. Besides, in assay [3], the half-maximal effective concentration (EC50) was 1790 nM.
